± gives the expanded uncertainty stated by the source.
Details: Liquid

vapor or sublimation pressure (337.42 K) | Structure (SMILES) | vapor or sublimation pressure (329 K)
– | CC(C)=O [acetone] | 100 ± 1.3 kPa
100 ± 1.3 kPa | CO [methanol] | –

From the NIST ThermoML archive (doi:10.1021/je200305n)
